The target of data set [1] is T1, hOAT3 (Homo sapiens, UniProt Q8TCC7).
T1 sequence (Q8TCC7 1-542): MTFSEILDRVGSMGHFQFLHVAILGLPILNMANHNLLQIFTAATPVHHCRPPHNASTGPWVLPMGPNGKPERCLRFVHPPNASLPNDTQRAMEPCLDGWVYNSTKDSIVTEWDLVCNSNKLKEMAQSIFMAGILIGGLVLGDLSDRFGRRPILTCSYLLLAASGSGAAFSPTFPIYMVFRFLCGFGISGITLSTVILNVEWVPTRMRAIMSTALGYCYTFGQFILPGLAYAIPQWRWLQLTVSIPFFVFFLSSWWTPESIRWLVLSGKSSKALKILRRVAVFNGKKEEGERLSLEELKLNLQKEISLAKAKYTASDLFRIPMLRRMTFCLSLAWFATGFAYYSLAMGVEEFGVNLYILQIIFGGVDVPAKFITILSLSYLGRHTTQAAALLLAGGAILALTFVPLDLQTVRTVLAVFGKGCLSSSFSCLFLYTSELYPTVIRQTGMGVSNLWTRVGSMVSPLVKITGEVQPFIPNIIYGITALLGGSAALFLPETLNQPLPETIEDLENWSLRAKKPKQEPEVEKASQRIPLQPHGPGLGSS
The data set is described as follows: Uptake of 6-CF in HEK-pBK and HEK-hOAT3 cells and its inhibition by probenecid. As to conditions: 5 μM 6-CF, 2 min, 37°C. On the set-up: expressed in transfected cells; host or cells: HEK293 (HEK-hOAT3), gift of Dr. Atsushi Yonezawa, Kyoto University Hospital; mock control HEK-pBK (pBKCMV vector). It counts as cell-based. On the procedure: The cells were incubated for 2 min at 37°C with 5 µM 6‐CF (pH 7.4) in the absence or presence of probenecid (100 µM).

Data set [2] has as its target T1, hOAT3. On the set-up: expressed in transfected cells; host or cells: HEK293 (HEK-hOAT3), gift of Dr. Atsushi Yonezawa, Kyoto University Hospital; mock control HEK-pBK (pBKCMV vector). As to conditions: cited from earlier work; for Ki: read-out: Ki against hOAT3.
Details of data set [3]: method as in Yu et al. [2023]. As to conditions: rats; ref Yu et al. [2023]; cited from earlier work.
In data set [4] the target is T1, hOAT3. Briefly: Inhibition of hOAT3-mediated methotrexate transport by febuxostat in HEK-hOAT3 cells (inhibition plot, Dixon plot). The arrangement: expressed in transfected cells; host or cells: HEK293 (HEK-hOAT3), gift of Dr. Atsushi Yonezawa, Kyoto University Hospital; mock control HEK-pBK (pBKCMV vector). The class given is cell-based. Here is the method: (§1) The entire LC gradient was 16 min.

On the set-up of data set [5]: method as in Zhang et al. [2014]. As to conditions: human, 40–120 mg febuxostat orally; ref Zhang et al. [2014]; cited from earlier work.
Data set [6] is described as follows: Cmax of febuxostat after oral administration in human. The class given is in vivo. As to conditions: 40–120 mg febuxostat orally, estimated from Cmax and protein binding.
On the set-up of data set [7]: method as in review report of febuxostat (Feburic Tablet). As to conditions: rats, 5 min after febuxostat 1 mg/kg i.v.; ref review report of febuxostat (Feburic Tablet); cited from earlier work.
A further data set deals with rOAT3. The arrangement: method as in Nozaki et al. [2004]. As to conditions: rat kidney slices; ref Nozaki et al. [2004]; cited from earlier work.
Data set [8] addresses T1, hOAT3. As to conditions: 10 μM methotrexate, 2, 5, 10 and 15 min, 37°C, all time points.
Data set [9] can be described thus: Pharmacokinetics of methotrexate after intravenous administration with and without febuxostat in rats. As to conditions: for Vd / half-life / k el / AUC(0-t) / clearance: male, Wistar, rat, plasma, iv, 2 mg/kg, methotrexate 2 mg/kg i.v., mean ± S.D.; for Vd / half-life / k el: n = 4; for AUC(0-t): n = 4, read-out: AUC0–90 min (converted); for clearance: n = 4, read-out: CLtot. The class given is in vivo, rat.
Source text: Nine‐week‐old male Wistar rats (SLC Japan Co., Shizuoka, Japan) were used for the pharmacokinetics study. All animal procedures were approved by the Animal Experiments Committee of The University of Osaka (No. 03‐018‐000) and conducted in accordance with the Japanese Law for the Protection and Management of Animals, the Standards Relating to the Care and Management of Laboratory Animals and Relief of Pain, and other relevant regulations and guidelines for animal experimentation. The rats were anesthetized with an intraperitoneal injection of a mixture of medetomidine, midazolam, and butorphanol at doses of 0.38, 2.0, and 2.5 mg/kg, respectively. Polyethylene catheters were implanted into the femoral vein and femoral artery to administer the drug and facilitate frequent blood collection. […] The area under the plasma concentration–time curve from 0 to 90 min (AUC0–90 min) was calculated using the trapezoidal rule. Moreover, the systemic clearance (CLtot), elimination rate constant from the central compartment (Kel), distribution volume of the central compartment (Vd), and half‐life (T1/2) were calculated according to the procedures for 2‐compartmental analysis.
as §1

Details of data set [10]: method as in Bleyer [1978]. As to conditions: within 30 h of administration; ref Bleyer [1978]; cited from earlier work.
Substrate in data set [11]: CN(Cc1cnc2nc(N)nc(N)c2n1)c1ccc(C(=O)N[C@@H](CCC(=O)O)C(=O)O)cc1
The data set is described as follows: cells, lysate or membranes named. As to conditions: other: 2 min, 37°C, pH 7.4, uptake in HEK-pBK subtracted from HEK-hOAT3, mean ± S.E.

Setting [12] is: HEK-hOAT3 cells, estron-3-sulfate as substrate, ref Tang et al. [2022].

Like-named read-outs stand apart in the source and are kept apart here.

As usually defined, the Ki is the equilibrium dissociation constant of an inhibitor or competing ligand from its target. A word on the IC50: it is the concentration needed to halve the response being measured. Low values mean greater potency in that assay, high ones weaker potency in that assay. In general, Cmax refers to the peak of the concentration-time curve. What is called Vd is the apparent volume that relates the amount in the body to the concentration in plasma or blood. Usually half-life stands for the time in which the quantity being followed falls by half. Read a low half-life as fast loss. As a reminder, the Km is the substrate concentration at which the rate is half of its maximum.

`O=C(O)c1ccc(C(=O)O)c(-c2c3ccc(=O)cc-3oc3cc(O)ccc23)c1` [6‐CF, 6‐carboxyfluorescein]: the “Uptake in HEK-hOAT3 cells relative to HEK-pBK cells” value at hOAT3 [1] (pH 7.4) is reported as “approximately 17.4 fold”.
For `Cc1nc(-c2ccc(OCC(C)C)c(C#N)c2)sc1C(=O)O[C@@H]1O[C@H](C(=O)O)[C@@H](O)[C@H](O)[C@H]1O` [febuxostat acyl‐β‐D‐glucuronide], on hOAT3 [2] (setting [12]), the “inhibitory type against hOAT3” value was “competitive” and the Ki is 6110 nM.
Take `Cc1nc(-c2ccc(OCC(C)C)c(C#N)c2)sc1C(=O)O` [febuxostat]: the protein binding in data set [3] is recorded as 98.4%. In addition, on hOAT3 [4], the IC50 turned out to be 650 ± 130 nM. In addition, the Ki is 630 ± 10 nM at hOAT3 [4] and 550 ± 150 nM at hOAT3 [2] (ref Tang et al. ([2022])). The “inhibitory type against hOAT3-mediated transport of methotrexate” value against hOAT3 [4] (Dixon plot, HEK-hOAT3 cells) was “noncompetitive”. Moreover, the “ratio of unbound Cmax to Ki value” on hOAT3 [4] (human unbound Cmax 0.12–0.30 μM, Ki against hOAT3 0.63 μM) is 0.19–0.48. Moreover, the Cmax in data set [5] is 5.3 to 13.5 µM. Further, in [6], the “unbound Cmax (clinical concentration)” value was 0.12 to 0.30 µM. In [7], the “plasma concentration of febuxostat” value is “approximately 24.1 μM”.
In the case of `CN(Cc1cnc2nc(N)nc(N)c2n1)c1ccc(C(=O)N[C@@H](CCC(=O)O)C(=O)O)cc1` [methotrexate], the “share of renal basolateral uptake for which rOAT3 is responsible” value in the data set with rOAT3 was “approximately 50%”. Moreover, the “Uptake in HEK-hOAT3 cells compared with HEK-pBK cells” value on hOAT3 [8] is given as “significantly higher”. For the same molecule, in [9] (febuxostat (+) 1 mg/kg i.v.), the Vd turned out to be 0.433 ± 0.088 L/kg, the half-life stood at 14 ± 4.6 min, the k el was 0.000833 s⁻¹ and the AUC(0-t) is 4350 ng·h/mL. In data set [9] (febuxostat (+) 1 mg/kg i.v.), the clearance was determined as 8.02 ± 2.03 mL/min/kg. In addition, in data set [9] (febuxostat (−)), the distribution volume (Vd) turned out to be 0.378 ± 0.061 L/kg, the half-life was found to be 6.4 ± 1.4 min, the k el was 0.00183 s⁻¹ and the AUC(0-t) is 2170 ng·h/mL. In addition, the clearance in data set [9] (febuxostat (−)) is 15.9 ± 3.56 mL/min/kg. Further, the “Plasma concentration of methotrexate with concomitant febuxostat” value in [9] (methotrexate 2 mg/kg i.v. with febuxostat 1 mg/kg i.v. vs without, at 15, 30, 60 and 90 min) is “significantly increased”. For the same molecule, the “excreted in urine as unchanged drug” value in data set [10] is listed as “approximately 95%”.
Turning to `CCCN(CCC)S(=O)(=O)c1ccc(C(=O)O)cc1` [probenecid], on hOAT3 [1] (100 μM probenecid), the “Effect on uptake of 6-CF in HEK-hOAT3 cells” value is listed as “potently inhibited”.

B1: hOAT3 (Homo sapiens) (protein)
chain: T1 sequence (Q8TCC7 1-542)
Consider B1, for which, in [11], the Michaelis-Menten constant (Km) was 46.4 ± 9.2 µM and the Vmax is listed as 287 ± 26 pmol/mg protein/min.

Source of the values: publication PMC12417622 (Biopharmaceutics & Drug Disposition, 2025).
